Consider seven molecules from patent publication US20230075765A1, “PYRROLO[2,3-D]PYRIMIDINE DERIVATIVE TARGETING EGFR MUTATION, AS WELL AS THE PREPARATIVE METHOD AND THE USE THEREOF” (WEST CHINA HOSPITAL, SICHUAN UNIVERSITY, priority 2020, published 2023).

Read-outs that look alike come from different tables or passages of the source.

Broadly, the IC50 is the concentration that gives 50% inhibition.

For one data set, the system named is H1975 cells. Nature of the data set: Inhibition of cell proliferation, CCK8 method. It is filed as cell-based, human. Conditions: 48 h, read-out: Inhibitory activity (IC50) against H1975. The method, then: (§1) The stock solution was diluted with the corresponding culture medium to the required concentration just before the experiment.
(§2) HBE cells and BEAS-2B cells are normal lung bronchial epithelial cell lines, and both cells were cultured in DMEM high glucose medium (supplemented with 10% fetal bovine serum and 1% double antibody) to the logarithmic growth phase; H460 cells, A549 cells, H1975 cells and HCC827 cells are lung cancer cell lines, and all of them were cultured in RPMI1640 medium (supplemented with 10% fetal bovine serum and 1% double antibody) to the logarithmic growth phase. Among them, H1975 cells and HCC827 cells are EGFR mutant cells.
(§3) The cells were counted, and then seeded in a 96-well plate at a density of 5000 cells/well, 100 μl for each well. The culture plate was moved into a CO2 incubator and incubated for 24 h at 37° C. and 5% CO2. Compounds at different concentrations were added to each well, 5 replicate wells for each concentration, and the cells were treated with the compounds for 48 hours. CCK8 detection reagent was added to each well according to the operation manual, and then the plate was further incubated for 1 h before terminating the culture. 450 nm wavelength was chosen, and the absorbance value of each well was adjusted on the microplate ELISA analyzer. The result was recorded. […] was taken as the horizontal axis, and absorbance as the vertical axis to plot a curve. The half inhibitory concentration (IC50) was calculated by Bliss method. Each experiment was repeated at least 3 times.
(§4) Normal lung cell lines and different lung cancer cell lines were selected for experiments.

The test system of another data set is HBE cells. Nature of the data set: Inhibition of cell proliferation, CCK8 method. It is filed as cell-based, human. As to conditions: for IC50: HBE normal bronchial epithelial cells, 48 h, CCK8, read-out: Inhibitory activity (IC50) against HBE. The method, then: as §1, §2, §3, §4
For orientation: Formazan colour is commonly taken as a measure of viable cells.

The next data set concerns HCC827 cells. Nature of the data set: Inhibition of cell proliferation, CCK8 method. It is filed as cell-based, human. As to conditions: for IC50: HCC827 EGFR mutant cells, 48 h, CCK8, read-out: Inhibitory activity (IC50) against HCC827; for selectivity for HCC827 cells (in words): EGFR mutant HCC827 cells versus other cell lines. Here is the method:
as §1, §2, §3, §4

Another data set concerns the target T1, JAK3 (Homo sapiens, UniProt P52333).
T1 construct: purchased Carna 08-046
T1 sequence (P52333 1-1124): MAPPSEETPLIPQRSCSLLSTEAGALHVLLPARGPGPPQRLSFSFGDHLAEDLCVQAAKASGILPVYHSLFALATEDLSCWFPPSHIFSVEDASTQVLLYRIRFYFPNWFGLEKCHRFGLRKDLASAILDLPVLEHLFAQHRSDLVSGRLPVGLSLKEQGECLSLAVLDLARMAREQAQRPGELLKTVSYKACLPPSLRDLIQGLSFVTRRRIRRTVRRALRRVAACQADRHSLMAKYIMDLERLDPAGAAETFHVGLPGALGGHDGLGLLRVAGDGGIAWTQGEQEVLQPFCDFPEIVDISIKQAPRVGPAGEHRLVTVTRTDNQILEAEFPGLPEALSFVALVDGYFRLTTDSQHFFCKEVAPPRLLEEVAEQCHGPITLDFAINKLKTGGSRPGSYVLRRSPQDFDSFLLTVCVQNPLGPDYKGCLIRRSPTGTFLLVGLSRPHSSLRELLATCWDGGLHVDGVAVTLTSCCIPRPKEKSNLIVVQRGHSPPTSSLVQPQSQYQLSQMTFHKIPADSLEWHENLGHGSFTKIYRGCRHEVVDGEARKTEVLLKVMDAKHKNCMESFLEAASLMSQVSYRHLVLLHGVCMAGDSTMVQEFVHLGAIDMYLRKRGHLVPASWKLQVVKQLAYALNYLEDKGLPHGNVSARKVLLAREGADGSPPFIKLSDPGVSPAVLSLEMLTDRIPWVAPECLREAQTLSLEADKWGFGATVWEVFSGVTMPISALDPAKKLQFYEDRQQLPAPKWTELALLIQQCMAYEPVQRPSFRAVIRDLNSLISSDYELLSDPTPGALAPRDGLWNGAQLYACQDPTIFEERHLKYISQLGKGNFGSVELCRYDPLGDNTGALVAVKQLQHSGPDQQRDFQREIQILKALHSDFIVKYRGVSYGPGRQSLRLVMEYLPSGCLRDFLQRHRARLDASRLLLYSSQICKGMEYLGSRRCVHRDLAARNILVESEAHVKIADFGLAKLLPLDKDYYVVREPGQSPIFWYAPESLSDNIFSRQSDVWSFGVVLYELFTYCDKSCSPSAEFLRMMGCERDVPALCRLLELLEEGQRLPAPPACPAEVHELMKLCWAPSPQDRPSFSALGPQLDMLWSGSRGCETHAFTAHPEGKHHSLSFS
Nature of the data set: Kinase inhibition, mobility shift assay. It is filed as biochemical. As to conditions: for Single-concentration inhibitory activity on JAK3, Mean (100% inhibition): compound concentration 1 nM; for IC50: read-out: Inhibitory activity (IC50) on JAK3. Here is the method: (§5) According to relevant literature, the inhibitory activity of five kinases (EGFR, EGFR-LT, EGFR-LTC, BTK, JAK3) were tested. Note: EGFR, EGFR-LT, EGFR-LTC: wild-type EGFR, L858R/T790M (EGFR-LT), or L858R/T790M/C797S (EGFR-LTC) mutant protein.
(§6) 95 μl of 100% DMSO was added to the first well of a 96-well plate, and then 5 μl of 10 mM compound solution was added to prepare a 500 μM compound solution.
(§7) 10 μl solution was taken out from the 50-fold concentration of compound solution (prepared and tested), and transferred to a 96-well plate, to which was added 90 μl kinase buffer to prepare a 5-fold concentration of compound solution.
(§8) 5 μl solution was taken out from the 5-fold concentration of compound solution in a 96-well plate, and transferred to a 384-well reaction plate. For example, the solution was transferred from well A1 of a 96-well plate to wells A1 and A2 of a 384-well plate, from well A2 of a 96-well plate to wells A3 and A4 of a 384-well plate, and so on.
(§9) 1) The kinase was added to 1× kinase buffer to form 2.5× kinase solution;
(§10) 2) 10 μl of the above 2.5× kinase solution was transferred to a 384-well reaction plate, and 1× kinase buffer was added to the negative control well, then incubated for 10 min at room temperature;
(§11) 3) FAM-labeled polypeptide and ATP were added to 1× kinase buffer to form a 2.5×substrate solution;
(§12) 5) The 384-well reaction plate was incubated at 28° C. for 60 min, to which was added 30 μl of stop solution to stop the reaction, and the model of biochemical incubator was SPX-100B-Z.
(§13) The conversion rate was read on CaliperEZ Reader.
(§14) 1) The conversion rate data were copied from CaliperEZ Reader II;
(§15) 2) The conversion rate was converted into the inhibition rate;
(§16) Percent inhibition=(max−conversion)/(max−min)*100
(§17) “min” is the reading of the control well without enzyme; “max” is the reading of DMSO control well.
(§18) 3) IC50 values were fitted by using XLFit excel add-in version 5.4.0.8.
(§19) Fitting formula: Y=Bottom+(Top−Bottom)/(1+(IC50/X)^HillSlope)

The target in the next data set is T2, EGFR (T790M L858R) (Homo sapiens, UniProt P00533, L858R/T790M).
T2 construct: purchased Invitrogen PR8911A
T2 sequence (P00533 25-1210 T790M/L858R): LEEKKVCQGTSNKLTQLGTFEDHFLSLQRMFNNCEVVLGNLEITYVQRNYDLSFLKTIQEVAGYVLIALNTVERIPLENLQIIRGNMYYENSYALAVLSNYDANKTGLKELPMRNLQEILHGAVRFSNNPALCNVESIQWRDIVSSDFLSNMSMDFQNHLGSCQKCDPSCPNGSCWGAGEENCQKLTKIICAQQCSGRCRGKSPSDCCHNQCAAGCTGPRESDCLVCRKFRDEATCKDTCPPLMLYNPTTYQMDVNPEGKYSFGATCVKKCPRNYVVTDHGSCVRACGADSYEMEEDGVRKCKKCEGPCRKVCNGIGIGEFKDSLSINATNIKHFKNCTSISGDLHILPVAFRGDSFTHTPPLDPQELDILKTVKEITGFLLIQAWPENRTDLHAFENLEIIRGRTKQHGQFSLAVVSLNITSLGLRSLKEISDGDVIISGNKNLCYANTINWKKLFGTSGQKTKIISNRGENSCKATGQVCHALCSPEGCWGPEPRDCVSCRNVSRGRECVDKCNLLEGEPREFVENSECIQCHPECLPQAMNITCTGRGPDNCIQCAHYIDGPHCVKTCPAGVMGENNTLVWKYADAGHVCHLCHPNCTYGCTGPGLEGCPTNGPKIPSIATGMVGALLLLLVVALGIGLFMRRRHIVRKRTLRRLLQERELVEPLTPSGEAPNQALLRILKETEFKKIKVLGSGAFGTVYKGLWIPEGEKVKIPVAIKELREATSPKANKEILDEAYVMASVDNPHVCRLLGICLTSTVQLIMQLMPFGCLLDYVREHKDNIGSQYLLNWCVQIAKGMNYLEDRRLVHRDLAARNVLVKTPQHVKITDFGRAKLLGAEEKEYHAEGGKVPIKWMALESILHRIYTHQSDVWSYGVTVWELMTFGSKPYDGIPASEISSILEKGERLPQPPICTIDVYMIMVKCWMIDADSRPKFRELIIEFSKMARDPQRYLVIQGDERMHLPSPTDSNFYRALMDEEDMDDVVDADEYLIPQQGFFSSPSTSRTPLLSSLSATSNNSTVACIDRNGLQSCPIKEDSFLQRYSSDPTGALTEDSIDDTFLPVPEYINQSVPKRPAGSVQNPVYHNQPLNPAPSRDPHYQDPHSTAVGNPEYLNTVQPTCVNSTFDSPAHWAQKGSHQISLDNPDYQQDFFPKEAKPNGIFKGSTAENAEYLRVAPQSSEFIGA
Nature of the data set: Kinase inhibition, mobility shift assay. It is filed as biochemical. As to conditions: for Single-concentration inhibitory activity against EGFR T790M L858R, Mean (100% inhibition): compound concentration 2 nM; for IC50: EGFR L858R/T790M double mutation, read-out: Inhibitory activity (IC50) on EGFR (T790M L858R); for inhibitory activity against EGFR L858R/T790M higher than against wild-type EGFR: ratio of IC50 values wild-type EGFR / EGFR L858R/T790M. The method, then: as §5, §6, §7, §8, §9, §10, §11, §12, §13, §14, §15, §16, §17, §18, §19

Where [1] appears, read: Homo sapiens, NCI-H1975, H1975 EGFR mutant cells.

`C=CC(=O)Nc1cccc(Oc2nc(Nc3ccc(N4CCN(C)CC4)c([N+](=O)[O-])c3)nc3c2ccn3COC(=O)C(C)(C)C)c1` [Compound 7]: the figures for the IC50 in the data set with H1975 cells (setting [1]), in the data set on HBE cells (Homo sapiens) and in the data set on HCC827 cells (Homo sapiens) were 4.12 µM, 3.61 µM and 0.44 µM, respectively. Further, the “Single-concentration inhibitory activity on JAK3, Mean (100% inhibition)” value at JAK3 is reported as −1.4 % inhibition. Also, the “Single-concentration inhibitory activity against EGFR T790M L858R, Mean (100% inhibition)” value at EGFR (T790M L858R) stood at 3.5 % inhibition.
In the case of `C=CC(=O)Nc1cccc(Oc2nc(Nc3ccc(N4CCN(C)CC4)c(N)c3)nc3[nH]ccc23)c1` [Compound 6], the IC50 was 3.84 µM with H1975 cells (setting [1]); 22.7 µM in the data set on HBE cells (Homo sapiens); 0.046 µM with HCC827 cells (Homo sapiens); 0.0022 µM on JAK3; 0.0034 µM on EGFR (T790M L858R). In addition, the “toxicity to normal epithelial cells HBE cells (in words)” value in the data set with HBE cells (compared with positive control commercially available Avtinib) was “less toxic”. For the same molecule, the “selectivity for HCC827 cells (in words)” value with HCC827 cells is on record as “high targeting selectivity”. Moreover, in the data set on HCC827 cells (IC50 values against HBE cells compared with HCC827 cells), the selectivity coefficient result was “exceeds 490 times”. Besides, the “Single-concentration inhibitory activity on JAK3, Mean (100% inhibition)” value on JAK3 stood at 29 % inhibition. Moreover, at EGFR (T790M L858R), the “Single-concentration inhibitory activity against EGFR T790M L858R, Mean (100% inhibition)” value is 36 % inhibition. The “inhibitory activity against EGFR L858R/T790M higher than against wild-type EGFR” value (shortened to “inhibitory activity … against wild-type EGFR”) on EGFR (T790M L858R) is recorded as 18 fold.
With `C=CC(=O)Nc1cccc(Oc2nc(Nc3ccc(N4CCN(C)CC4)c(OC)c3)nc3[nH]ccc23)c1` [Compound 4], the IC50 with H1975 cells (setting [1]) is 22.4 µM; in the data set with HBE cells (Homo sapiens), 12.5 µM; in the data set with HCC827 cells (Homo sapiens) it was 0.26 µM; on JAK3, 0.0023 µM; on EGFR (T790M L858R), 0.0031 µM. In the data set on HCC827 cells, the “selectivity for HCC827 cells (in words)” value is “high targeting selectivity”. The “Single-concentration inhibitory activity on JAK3, Mean (100% inhibition)” value at JAK3 is reported as 26 % inhibition. Further, the “Single-concentration inhibitory activity against EGFR T790M L858R, Mean (100% inhibition)” value on EGFR (T790M L858R) is reported as 42 % inhibition. For the same molecule, the “inhibitory activity … against wild-type EGFR” value at EGFR (T790M L858R) came to 70 fold.
Turning to `C=CC(=O)Nc1cccc(Oc2nc(Nc3ccc(N4CCN(C)CC4)c([N+](=O)[O-])c3)nc3[nH]ccc23)c1` [Compound 5], the half-inhibitory concentration (IC50) with H1975 cells (setting [1]) was found to be 3.1 µM; with HBE cells (Homo sapiens), 7.54 µM; in the data set on HCC827 cells (Homo sapiens), 0.1 µM; on JAK3, 0.0022 µM; on EGFR (T790M L858R) it was 0.0027 µM. Also, the “Single-concentration inhibitory activity on JAK3, Mean (100% inhibition)” value on JAK3 is 23 % inhibition. The “Single-concentration inhibitory activity against EGFR T790M L858R, Mean (100% inhibition)” value at EGFR (T790M L858R) amounted to 49 % inhibition. Also, at EGFR (T790M L858R), the “inhibitory activity … against wild-type EGFR” value is 54 fold.
For the molecule `C=CC(=O)Nc1cccc(Oc2nc(Nc3ccc(N4CCN(C)CC4)c(I)c3)nc3c2ccn3COC(=O)C(C)(C)C)c1` [Compound 9], the IC50 with H1975 cells (setting [1]) is 52.3 µM; in the data set on HBE cells (Homo sapiens), 7.5 µM; with HCC827 cells (Homo sapiens), 51.7 µM. Also, the “Single-concentration inhibitory activity on JAK3, Mean (100% inhibition)” value on JAK3 is reported as −4.0 % inhibition. Moreover, the “Single-concentration inhibitory activity against EGFR T790M L858R, Mean (100% inhibition)” value on EGFR (T790M L858R) is reported as 0.1 % inhibition.
For `C=CC(=O)Nc1cccc(Oc2nc(Nc3ccc(N4CCN(C)CC4)c(Cl)c3)nc3[nH]ccc23)c1` [Compound 2], the IC50 in the data set with H1975 cells (H1975 EGFR mutant cells) amounted to 1.67 µM; with HBE cells, 8.73 µM; in the data set on HCC827 cells, 0.12 µM. Besides, the “Single-concentration inhibitory activity on JAK3, Mean (100% inhibition)” value at JAK3 is reported as 77 % inhibition. Besides, the “Single-concentration inhibitory activity against EGFR T790M L858R, Mean (100% inhibition)” value at EGFR (T790M L858R) is reported as 92 % inhibition.
`C=CC(=O)Nc1cccc(Oc2nc(Nc3ccc(N4CCN(C)CC4)c(N)c3)nc3c2ccn3COC(=O)C(C)(C)C)c1` [Compound 8]: the IC50 came to 42 µM with H1975 cells (setting [1]), 9.58 µM in the data set with HBE cells (Homo sapiens) and 0.33 µM with HCC827 cells (Homo sapiens). In addition, the “inhibitory activity on HCC827 cells (in words)” value with HCC827 cells (CCK8, 48 h) is given as “certain inhibitory effect”. Also, the “Single-concentration inhibitory activity on JAK3, Mean (100% inhibition)” value on JAK3 was −7.6 % inhibition. Further, at EGFR (T790M L858R), the “Single-concentration inhibitory activity against EGFR T790M L858R, Mean (100% inhibition)” value amounted to 2.4 % inhibition.
